Experimental data: ChEMBL document CHEMBL1649315, “Extended-spectrum cephalosporinase in Acinetobacter baumannii” (Antimicrob Agents Chemother, 2010)
In brackets after ≈: the same amount, converted by molar mass.

Columns and labels:
[1] = system: CO/N=C(\C(=O)N[C@@H]1C(=O)N2C(C(=O)O)=C(COC(C)=O)CS[C@H]12)c1csc(N)n1; test: (§1) Ratio of Kcat to Ki for Acinetobacter baumannii ADC-33 beta-lactamase
[2] = system: CO[C@@]1(NC(=O)Cc2cccs2)C(=O)N2C(C(=O)O)=C(COC(N)=O)CS[C@@H]21; test: as §1
[3] = system: CC(=O)OCC1=C(C(=O)O)N2C(=O)[C@@H](NC(=O)Cc3cccs3)[C@H]2SC1; test: (§2) Activity of Acinetobacter baumannii ADC-33 beta-lactamase
[4] = system: CC(C)(O/N=C(\C(=O)N[C@@H]1C(=O)N2C(C(=O)[O-])=C(C[n+]3ccccc3)CS[C@H]12)c1csc(N)n1)C(=O)O; test: as §2
[5] = system: CC1(C)S[C@@H]2[C@H](NC(=O)Cc3ccccc3)C(=O)N2[C@H]1C(=O)O; test: as §2
[6] = system: CC1(C)S[C@@H]2[C@H](NC(=O)[C@H](N)c3ccccc3)C(=O)N2[C@H]1C(=O)O; test: as §2
[7] = system: CCN1CCN(C(=O)N[C@@H](C(=O)N[C@@H]2C(=O)N3[C@@H]2SC(C)(C)[C@@H]3C(=O)O)c2ccccc2)C(=O)C1=O; test: as §2
[8] = system: CO/N=C(\C(=O)N[C@@H]1C(=O)N2C(C(=O)[O-])=C(C[n+]3cccc4c3CCC4)CS[C@H]12)c1csc(N)n1; test: as §2
[9] = system: CO[C@@]1(NC(=O)Cc2cccs2)C(=O)N2C(C(=O)O)=C(COC(N)=O)CS[C@@H]21; test: as §2
[10] = system: O=C(Cc1cccs1)N[C@@H]1C(=O)N2C(C(=O)[O-])=C(C[n+]3ccccc3)CS[C@H]12; test: as §2
[11] = system: CC(=O)OCC1=C(C(=O)O)N2C(=O)[C@@H](NC(=O)Cc3cccs3)[C@H]2SC1; test: (§3) Ratio of Kcat to Km for Acinetobacter baumannii ADC-33 beta-lactamase
[12] = system: CC1(C)S[C@@H]2[C@H](NC(=O)Cc3ccccc3)C(=O)N2[C@H]1C(=O)O; test: as §3
[13] = system: CC1(C)S[C@@H]2[C@H](NC(=O)[C@H](N)c3ccccc3)C(=O)N2[C@H]1C(=O)O; test: as §3
[14] = system: CCN1CCN(C(=O)N[C@@H](C(=O)N[C@@H]2C(=O)N3[C@@H]2SC(C)(C)[C@@H]3C(=O)O)c2ccccc2)C(=O)C1=O; test: as §3
[15] = system: CO/N=C(\C(=O)N[C@@H]1C(=O)N2C(C(=O)[O-])=C(C[n+]3cccc4c3CCC4)CS[C@H]12)c1csc(N)n1; test: as §3
[16] = system: O=C(Cc1cccs1)N[C@@H]1C(=O)N2C(C(=O)[O-])=C(C[n+]3ccccc3)CS[C@H]12; test: as §3
[17] = system: Acinetobacter baumannii; test: Antimicrobial activity against Acinetobacter baumannii KI by Etest method; format: functional
[18] = system: Acinetobacter baumannii; test: Antimicrobial activity against Acinetobacter baumannii CIP70.10 by Etest method; format: functional
[19] = system: Acinetobacter baumannii; test: Antimicrobial activity against Acinetobacter baumannii AYE expressing VEB-1 gene by Etest method; format: functional
[20] = system: Escherichia coli; test: Antimicrobial activity against Escherichia coli TOP10 harboring pADC-33 plasmid by Etest method; format: functional
[21] = system: Escherichia coli; test: Antimicrobial activity against Escherichia coli TOP10 harboring pADC-50 plasmid by Etest method; format: functional
[22] = system: Escherichia coli; test: Antimicrobial activity against Escherichia coli TOP10 harboring pADC-11 plasmid by Etest method; format: functional
[23] = system: Escherichia coli; test: Antimicrobial activity against Escherichia coli TOP10 harboring pADC-33 plasmid with entire blaAmpC gene by Etest method; format: functional
[24] = system: Escherichia coli; test: Antimicrobial activity against Escherichia coli TOP10 harboring pADC-11 plasmid with entire blaAmpC gene by Etest method; format: functional
[25] = system: Escherichia coli; test: Antimicrobial activity against Escherichia coli TOP10 harboring pADC-33 plasmid with entire blaAmpC gene with alanine residue deletion at 215 position by Etest method; format: functional
[26] = system: Escherichia coli; test: Antimicrobial activity against Escherichia coli TOP10 harboring pADC-11 plasmid carrying entire blaAmpC gene with alanine residue insertion at 215 position by Etest method; format: functional
[27] = system: Escherichia coli; test: Antimicrobial activity against Escherichia coli TOP10 harboring pADC-33 plasmid carrying entire blaAmpC gene with alanine residue deletion at 215 position and R210P substitution by Etest method; format: functional
[28] = system: Escherichia coli; test: Antimicrobial activity against Escherichia coli TOP10 harboring pADC-11 plasmid carrying entire blaAmpC gene with alanine residue insertion at 215 position and R210P substitution by Etest method; format: functional
[29] = system: Escherichia coli; test: Antimicrobial activity against Escherichia coli TOP10 harboring pTOPO plasmid by Etest method; format: functional
[30] = system: Acinetobacter baumannii; test: Antimicrobial activity against Acinetobacter baumannii KI by Etest method in presence of Tazobactam; format: functional
[31] = system: Acinetobacter baumannii; test: Antimicrobial activity against Acinetobacter baumannii CIP70.10 by Etest method in presence of Tazobactam; format: functional
[32] = system: Acinetobacter baumannii; test: Antimicrobial activity against Acinetobacter baumannii AYE expressing VEB-1 gene by Etest method in presence of Tazobactam; format: functional
[33] = system: Escherichia coli; test: Antimicrobial activity against Escherichia coli TOP10 harboring pADC-33 plasmid by Etest method in presence of Tazobactam; format: functional
[34] = system: Escherichia coli; test: Antimicrobial activity against Escherichia coli TOP10 harboring pADC-50 plasmid by Etest method in presence of Tazobactam; format: functional
[35] = system: Escherichia coli; test: Antimicrobial activity against Escherichia coli TOP10 harboring pADC-11 plasmid by Etest method in presence of Tazobactam; format: functional
[36] = system: Escherichia coli; test: Antimicrobial activity against Escherichia coli TOP10 harboring pADC-33 plasmid carrying entire blaAmpC gene by Etest method in presence of Tazobactam; format: functional
[37] = system: Escherichia coli; test: Antimicrobial activity against Escherichia coli TOP10 harboring pADC-11 plasmid carrying entire blaAmpC gene by Etest method in presence of Tazobactam; format: functional
[38] = system: Escherichia coli; test: Antimicrobial activity against Escherichia coli TOP10 harboring pADC-33 plasmid carrying entire blaAmpC gene with alanine residue deletion at 215 position by Etest method in presence of Tazobactam; format: functional
[39] = system: Escherichia coli; test: Antimicrobial activity against Escherichia coli TOP10 harboring pADC-11 plasmid carrying entire blaAmpC gene with alanine residue insertion at 215 position by Etest method in presence of Tazobactam; format: functional
[40] = system: Escherichia coli; test: Antimicrobial activity against Escherichia coli TOP10 harboring pADC-33 plasmid carrying entire blaAmpC gene with alanine residue deletion at 215 position and R210P substitution by Etest method in presence of Tazobactam; format: functional
[41] = system: Escherichia coli; test: Antimicrobial activity against Escherichia coli TOP10 harboring pADC-11 plasmid carrying entire blaAmpC gene with alanine residue deletion at 215 position and R210P substitution by Etest method in presence of Tazobactam; format: functional
[42] = system: Escherichia coli; test: Antimicrobial activity against Escherichia coli TOP10 harboring pTOPO plasmid by Etest method in presence of Tazobactam; format: functional
[43] = system: Acinetobacter baumannii; test: Ratio of Kcat to Km for Acinetobacter baumannii ADC-33 beta-lactamase to Kcat to Km for Acinetobacter baumannii ADC-11 beta-lactamase

“Beta-lactamase ADC-33 (Acinetobacter baumannii) (from UniProt B2ZTR6)” gave a kcat/Km [1] of 2e+06 M⁻¹ s⁻¹, a kcat/Km [2] of 3e+06 M⁻¹ s⁻¹ and a Km [3] of 120 µM. For the same molecule, the kcat [3] was 140 s⁻¹, the Km [4] was 30 µM and the kcat [4] was 4 s⁻¹. It also gave a Km [5] of 3 µM, a Km [6] of 9 µM and a kcat [6] of 4 s⁻¹. The Km [7] was 16 µM, the kcat [7] was 4 s⁻¹ and the Km [8] was 700 µM. It also gave a kcat [8] of 35 s⁻¹, a kcat [9] of 0.3 s⁻¹ and a Km [10] of 100 µM. For the same molecule, the kcat [10] was 220 s⁻¹, the kcat/Km [11] was 1e+06 M⁻¹ s⁻¹ and the kcat/Km [12] was 5e+06 M⁻¹ s⁻¹. For the same molecule, the kcat/Km [13] was 500000 M⁻¹ s⁻¹, the kcat/Km [14] was 250000 M⁻¹ s⁻¹ and the kcat/Km [15] was 50000 M⁻¹ s⁻¹. The kcat/Km [16] was 2e+06 M⁻¹ s⁻¹.

In the case of `CCN1CCN(C(=O)N[C@@H](C(=O)N[C@@H]2C(=O)N3[C@@H]2SC(C)(C)[C@@H]3C(=O)O)c2ccccc2)C(=O)C1=O` [PIPERACILLIN], the MIC [17] was greater than 256 µg/mL, the MIC [18] was 16 µg/mL (≈ 30.9 µM) and the MIC [19] was greater than 256 µg/mL. It also gave an MIC [20] of 32 µg/mL (≈ 61.8 µM), an MIC [21] of 16 µg/mL (≈ 30.9 µM) and an MIC [22] of 8 µg/mL (≈ 15.5 µM). It also gave an MIC [23] greater than 256 µg/mL, an MIC [24] greater than 256 µg/mL and an MIC [25] greater than 256 µg/mL. The MIC [26] was greater than 256 µg/mL, the MIC [27] was greater than 256 µg/mL and the MIC [28] was greater than 256 µg/mL. The MIC [29] was 1 µg/mL (≈ 1.93 µM), the MIC [30] was 128 µg/mL and the MIC [31] was 4 µg/mL. The MIC [32] was 128 µg/mL, the MIC [33] was 32 µg/mL and the MIC [34] was 16 µg/mL. The MIC [35] was 8 µg/mL, the MIC [36] was greater than 256 µg/mL and the MIC [37] was 128 µg/mL. It also gave an MIC [38] of 256 µg/mL, an MIC [39] of 256 µg/mL and an MIC [40] of 128 µg/mL. For the same molecule, the MIC [41] was 256 µg/mL, the MIC [42] was 1 µg/mL and the kcat/Km [43] was 1.2e+06 M⁻¹ s⁻¹.
